Results published in patent US8623408B2, “Cladribine formulations for improved oral and transmucosal delivery” (Ares Trading S.A., priority 2003, dated 2014).
Where “and” joins values, the source holds several entries; their conditions need not be identical. Identical values can stand only once. Like-named read-outs stand apart in the source and are kept apart here.

Test: Bioavailability and pharmacokinetic studies in beagle dog model
Type: in vivo
Design: AUC/Dose: unit not given here
Conditions: dogs; for AUC/Dose: dose in mg/kg; for concentration at 5 min: 5 mg/animal, read-out: Cfirst (first measured concentration at 5 minutes)
Protocol: The bioavailability of cladribine when complexed with γCD or HPβCD was evaluated in a beagle dog model.
Bioavailability and pharmacokinetic studies were conducted in a beagle dog model as follows.
Outbred male beagle dogs (identified as PM01-PM06) obtained from IDRI (Dunakeszi, Hungary) were allowed laboratory diet and water ad libitum. The same dogs were used throughout the study to minimize inter- and intrasubject variability. The bioavailability and pharmacokinetic studies were conducted as follows.
In the first test period, 5 mg cladribine (0.25 mg/ml in isotonic saline) was administered intravenously to test subjects. Blood samples were collected at various time intervals over 48 hours. In the second test period, half of the subjects received buccally a tablet as described above containing a saturated cladribine-γCD or -HPβCD complex. Serial blood samples were collected over 48 hours. The third test period repeated the second test period with the exception that the subjects previously receiving the γ-cyclodextrin buccal tablet were now given hydroxypropyl-β-cyclodextrin buccal tablets, with hydroxypropyl-β-cyclodextrin tablet recipients from the second period receiving γ-cyclodextrin buccal tablets. The fourth and fifth test periods repeated test periods two and three with the exception that the tablets were given orally.
Cladribine levels in the blood were measured by HPLC and an LC/MS/MS method. The TopFit 2.0 Pharmacokinetic and Pharmacodynamic Data Analysis System was used for the pharmacokinetic analysis of the data.
The peak areas, calibration curves, accuracy, precision values and the concentrations were determined using Analyst Software 1.1 (PE SCIEX, Foster City, US). For calculation of mean and standard deviation, Excel 5.0 software was used. The calibration curve was fitted using the ratio of concentrations of analyte and internal standard versus the ratio of the peak areas of them. A straight line was fitted on the experimental points by weighted least squares linear regression analysis. The weighting scheme used was 1/concentration squared as pg/ml plasma.
For calculation of mean, standard deviation and CV %, Excel 5.0 software was used. Lower levels than the limit of quantification were not accepted. Mean and S.D. values were calculated only for the concentrations measured after intravenous administration.
Pharmacokinetic analysis was performed on the basis of individual plasma concentration versus time curves. The mean and S.D. of parameters obtained from individual data were calculated. The linear-trapezoidal rule was used for calculation of the area under the plasma concentration time curve from 0 until the last measured concentration (AUD). Using the terminal regression line the area extrapolated to infinity (AUCt-∞) was calculated in the following way: AUCt-∞=ccalc/λz • where: Ccalc represents the estimated plasma concentration by the regression line at the last sampling time point with measured concentration above the limit of quantification, and λz represents the rate constant calculated from the regression line.
The points determining the regression line, i.e. the terminal phase, were selected by visual determination of the linear segment of the semilogarithmic curve. The total area under the curve (AUC) was calculated by adding together the partial areas: AUC=AUD+AUCt-∞. The AUC values were normalized by the actual dose given in the particular period. For calculation of the bioavailability, the buccal/oral AUC/dose value was divided by the intravenous AUC/dose value.

[1] = intravenous bolus, 5 mg cladribine/animal, Mean of 6 dogs
[2] = intravenous bolus, 5 mg cladribine/animal, individual dogs PM01-PM06

Nc1nc(Cl)nc2c1ncn2[C@H]1C[C@H](O)[C@@H](CO)O1 [cladribine, 2-chloro-2′-deoxyadenosine]
AUD [1]: 377 ng·h/mL | AUDext [1]: 1.4% | Cinitial (extrapolated value at the end of the bolus) [1]: 563 ng/mL | MRTtot [1]: 1.3 h | AUC/Dose [1]: 967 | AUC/Dose [2]: 918 and 965 and 947 and 949 and 948 and 1077 | AUC [2]: 338 ng·h/mL and 366 ng·h/mL and 432 ng·h/mL and 342 ng·h/mL and 433 ng·h/mL | AUD [2]: 379 ng · h/ml and 334 ng · h/ml and 359 ng · h/ml and 426 ng · h/ml (2×) and 337 ng · h/ml | AUDext [2]: 1.4% (3×) and 1.0% and 1.9% and 1.5% | Cfirst (first measured concentration at 5 minutes) [2]: 306 ng/mL and 478 ng/mL and 560 ng/mL and 446 ng/mL and 605 ng/mL | Cinitial (extrapolated value at the end of the bolus) [2]: 569 ng/mL and 335 ng/mL and 567 ng/mL and 655 ng/mL and 525 ng/mL and 726 ng/mL | Cltot [2]: 247 mL/min and 228 mL/min and 193 mL/min and 244 mL/min and 192 mL/min | Cltot/kg [2]: 17.6 mL/min/kg and 15.4 mL/min/kg | MRTtot [2]: 1.4 h and 1.5 h and 1.3 h (3×) and 1.2 h | t½ terminal [2]: 11.3 h and 9.9 h and 10.4 h and 8.5 h and 10.7 h | clearance (male, beagle, dog, plasma, iv, 5 mg, after intravenous administration, read-out: mean total clearance): 17 mL/min/kg | half-life (male, beagle, dog, plasma, iv, 5 mg, after intravenous administration, read-out: terminal elimination half-life (converted)): ~10 h | AUC (male, beagle, dog, plasma, iv, 5 mg, intravenous bolus, 5 mg cladribine/animal, Mean of 6 dogs, read-out: AUC): 382 ng·h/mL | clearance (male, beagle, dog, plasma, iv, 5 mg, intravenous bolus, 5 mg cladribine/animal, Mean of 6 dogs, read-out: Cltot): 220 mL/min | clearance (male, beagle, dog, plasma, iv, 5 mg, intravenous bolus, 5 mg cladribine/animal, Mean of 6 dogs, read-out: Cltot/kg): 17.3 mL/min/kg | half-life (male, beagle, dog, plasma, iv, 5 mg, intravenous bolus, 5 mg cladribine/animal, Mean of 6 dogs, read-out: t½ terminal (converted)): 10.3 h | AUC (male, beagle, dog, plasma, iv, 5 mg, intravenous bolus, 5 mg cladribine/animal, individual dogs PM01-PM06, read-out: AUC): 383 ng·h/mL | clearance (male, beagle, dog, plasma, iv, 5 mg, intravenous bolus, 5 mg cladribine/animal, individual dogs PM01-PM06, read-out: Cltot): 217 mL/min | clearance (male, beagle, dog, plasma, iv, 5 mg, intravenous bolus, 5 mg cladribine/animal, individual dogs PM01-PM06, read-out: Cltot/kg): 18.1 mL/min/kg | half-life (male, beagle, dog, plasma, iv, 5 mg, intravenous bolus, 5 mg cladribine/animal, individual dogs PM01-PM06, read-out: t½ terminal (converted)): 11 h | concentration at 5 min (male, beagle, dog, plasma, iv, intravenous bolus, 5 mg cladribine/animal, Mean of 6 dogs): 479 ng/mL | concentration at 5 min (male, beagle, dog, plasma, iv, intravenous bolus, 5 mg cladribine/animal, individual dogs PM01-PM06): 477 ng/mL
